# Assay results taken from PubChem BioAssay AID2581 (Johns Hopkins Ion Channel Center, 2010).
# Calls of active or inactive are those of the source.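 The calls were made as follows: active = any inhibition of Kir2.1 potassium channel current, measured at -100 mV, at any tested dose; inactive = no inhibition seen at any dose.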
# Target: Inward rectifier potassium channel 2 (Mus musculus) (UniProt P35561)
# Test: Kir2.1 inward rectifier current inhibition – cell-based, automated electrophysiology, IonWorks patch clamp, orthogonal assay for Kir2.1 inhibitor project, dose response (AID 2581)
# Conditions: Kir2.1 cell line, IonWorks patch clamp current at -100 mV
# Inward rectifier potassium channel 2 (Mus musculus), sequence (P35561 whole entry, looked up): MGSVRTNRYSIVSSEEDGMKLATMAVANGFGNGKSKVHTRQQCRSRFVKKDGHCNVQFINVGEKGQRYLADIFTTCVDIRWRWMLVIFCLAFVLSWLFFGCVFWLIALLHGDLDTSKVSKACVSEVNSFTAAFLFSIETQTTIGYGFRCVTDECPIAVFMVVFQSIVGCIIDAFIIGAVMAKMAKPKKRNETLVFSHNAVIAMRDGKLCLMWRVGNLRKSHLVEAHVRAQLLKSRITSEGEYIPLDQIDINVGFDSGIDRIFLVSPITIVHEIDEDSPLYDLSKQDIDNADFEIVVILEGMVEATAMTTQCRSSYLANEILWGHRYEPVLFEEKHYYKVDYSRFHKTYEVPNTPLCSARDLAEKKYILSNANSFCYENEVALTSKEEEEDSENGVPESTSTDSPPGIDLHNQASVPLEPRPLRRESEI
row,Compound,IC50
1,COc1ccc(CNCc2ccc(C(C)(C)C)cc2)cc1,14 µM
2,COc1ccc(CNC2CCCc3ccccc32)cc1 (centres undefined),9.05 µM
3,COc1ccc(CNCc2ccc(OC)c3ccccc23)cc1,20.6 µM
4,COc1ccc(CNCc2ccccc2C)cc1,16.8 µM
5,COc1ccc(CNCc2ccc(OC)c(Cl)c2)cc1,5.11 µM
6,COc1cccc(CNCc2cccc3ccccc23)c1,23.6 µM
7,COc1ccc(CNCc2ccc(Cl)cc2)cc1,11.5 µM
8,COc1ccc(CNCc2cccc(Cl)c2)cc1,8.99 µM
9,COc1ccc(CNCc2cccc3ccccc23)c(OC)c1,28.2 µM
10,COc1ccc(CNCc2ccc(OC)cc2)cc1,13.3 µM
11,COc1ccc(CNCc2ccc(C)cc2)cc1,8.01 µM
12,COc1ccc(CNCc2ccc(OC)c3ccccc23)cc1OC,23.5 µM
13,COc1ccc(CNCc2cccc3ccccc23)cc1OC,23 µM
14,COc1ccc(CNCc2ccc3ccccc3c2)cc1,9.76 µM
15,COc1ccccc1CNCc1cccc2ccccc12,18.1 µM
16,COc1ccc(CNCc2ccc(OC(F)(F)F)cc2)cc1,24.1 µM

# Same assay, conditions: Kir2.1 cell line, IonWorks patch clamp current at -100 mV; at 30 µM (top of the series)
row,Compound,"channel activity, lower = inhibition"
1,COc1ccc(CNCc2ccccn2)cc1,inactive
2,FC(F)(F)Oc1ccc(CNCc2cccc3ccccc23)cc1,inactive
3,COc1ccc(C(C)NCc2cccc3ccccc23)cc1 (centres undefined),inactive
4,Clc1cccc(CNCc2cccc3ccccc23)c1,inactive
5,COc1cc(CN(C)Cc2cccc3ccccc23)ccc1OCc1ccccc1,inactive
6,COc1cc(CN(C)Cc2cccc3ccccc23)c([N+](=O)[O-])cc1OC,inactive
7,CC(C)(C)c1ccc(CNCc2cccc3ccccc23)cc1,inactive
8,COc1ccc(CNC(C)c2cccc3ccccc23)cc1 (centres undefined),inactive
9,COc1ccc(CNC(=O)c2cccc3ccccc23)cc1,inactive
10,COc1ccc(CNCc2cccnc2)cc1,inactive
11,COc1ccc(C(=O)NCc2cccc3ccccc23)cc1,inactive
12,Fc1cccc(CNCc2cccc3ccccc23)c1F,inactive
13,COc1ccc(CNCc2ccncc2)cc1,inactive
14,COc1ccc(CNCc2ccccc2)cc1,inactive
15,COc1cc(Br)c(CN(C)Cc2cccc3ccccc23)cc1OC,inactive
16,COc1ccc(COCc2cccc3ccccc23)cc1,inactive
17,Clc1ccc(CNCc2cccc3ccccc23)c(Cl)c1,inactive
18,Clc1ccc(CNCc2cccc3ccccc23)cc1,inactive
